The test system of data set [1] is post-tetraploid HPT4 cells. The data set is described as follows: Cell proliferation assay, post-tetraploid HPT4. The note with it: HPT4, five days. The format is cell-based, human. On the procedure:
(§1) Cancer cell lines and hTERT-RPE1 retinal pigment epithelial cells were purchased from the American Type Culture Collection (ATCC) (Manassas, VA, U.S.A.) from 2011 to 2014 [41] and cultured in ATCC-recommended media. All experiments were carried out within nine passages of the original vials from ATCC who authenticated the cancer cell lines by short tandem repeat analysis. We verified the mutant status of seven frequently mutated cancer genes (i.e., BRAF, CDKN2A, CTNNB1, EGFR, KRAS, PIK3CA and TP53) by full exome or targeted sequencing. Sequencing results were compared to COSMIC version 75 of the Genomics of Drug Sensitivity in Cancer data base and provided additional authentication of the identity of the cell lines. The isolation and characterization of post-tetraploid clones from HCT 116 has been described previously. The mutation status of the CDKN2A, CTNNB1, KRAS and PIK3CA genes were confirmed by sequence analysis in both the HCT 116 parental cell line and post-tetraploid clones. All experiments were carried out within nine passages of the original cell stocks that were transferred from the Max Planck Institute of Biochemistry (Martinsried, Germany) to Netherlands Translational Research Center.
(§2) Cell proliferation assays were carried out as described using ATPlite 1step™ (Perkin Elmer, Groningen, The Netherlands). Exposure time was 72 or 120 hours as indicated in the Legends to the Figures. Percentage growth was calculated, relative to the growth of unexposed cells, and relative IC50s were fitted using a four-parameter logistics curve (XLfit 5.3, IDBS). For Figure 4A and 7 dose response curves were redrawn in Prism. To compare the inhibitory potency of compounds in proliferation assays with HCT 116 parental and tetraploid clones, pIC50 (−^10logIC50) values were compared in three independent experiments. A two-tailed Student's t-test was performed to determine whether differences in sensitivity (ΔpIC50) were statistically significant. Caspase 3/7 activity of cancer cells was measured using Caspase-Glo 3/7 Assay kit (cat no. G8093, Promega, Madison USA). Viability of T-ALL cell samples was determined using ATPlite and exposure of 72 hours as described previously.

In data set [2] the test system is OVCAR-3 ovary adenocarcinoma cell line. The note with it: three day cell proliferation assay; cited from earlier work.
The test system of data set [3] is HCT 116 parental cells or tetraploids. Kind of data set: Colony formation assay. The format is cell-based, human. To be noted: pre-treated 4 days with 100 nM, reseeded. Here is the method: After 4 days, the cells were washed with phosphate-buffered saline (PBS) and allowed to recover for 24 hours. The remaining cells were collected and plated at a density of 1000 cells per well in a 96-well plate. After ten days, cells were fixed with 96% methanol for 20 minutes, washed with PBS and stained with 0.1% (w/v) crystal violet over-night. Plates were washed in tap water and allowed to dry before scanning and analysis with ImageJ software (NIH, Bethesda, MD, USA).

In data set [4] the test system is 66 cancer cell lines (44 cell lines). More on the design: method as in earlier work. To be noted: cited from earlier work.
The subject of data set [5] is post-tetraploid HPT2 cells. The data set is described as follows: Cell proliferation assay, post-tetraploid HPT2. The class given is cell-based, human. The note with it: HPT2, five days. On the procedure:
as §1, §2

The subject of data set [6] is LoVo colorectal adenocarcinoma cell line. The data set is described as follows: Cell proliferation assay (ATPlite), LoVo. The format is cell-based, human. The note with it: 5 day proliferation assay. Here is the method: as §2
A general note: Cellular ATP, detected with luciferase, serves as a proxy for viable cell number.

The subject of data set [7] is HCT 116 vs HPT1, -2 and -4. The data set is described as follows: Drug sensitivity analysis, HCT116 diploid versus tetraploids. The format is cell-based, human. Here is the method: as §2
The test system of data set [8] is LoVo colorectal adenocarcinoma cell line. To be noted: three day cell proliferation assay; cited from earlier work.
Data set [9] relates to OVCAR-3 ovary adenocarcinoma cell line. The data set is described as follows: Cell proliferation assay (ATPlite), OVCAR-3. The class given is cell-based, human. To be noted: 5 day proliferation assay. On the procedure:
as §2

The test system of data set [10] is MG-63 osteosarcoma cell line. The data set is described as follows: Cell proliferation assay (ATPlite), MG-63. The note with it: 5 day proliferation assay. The class given is cell-based, human. On the procedure: as §2
The test system of data set [11] is HCT 116, HPT1, HPT2 and HPT4 cells. Kind of data set: Time-lapse microscopy, HCT 116 and post-tetraploid clones. The class given is cell-based, human. To be noted: 100 nM, post-tetraploid clones and parental cell line. Here is the method:
(§3) HCT 116 diploid and tetraploids stably expressed green fluorescent protein-tagged histone 2B (H2B-GFP). All other cell lines were pre-incubated with SiR-DNA (Spirochrome, Switzerland) in order to visualize DNA. Cells were cultured in Leibovitz L15 CO2-independent cell culture medium in 6-well glass bottom chamber (LabTek Corp., Australia) and synchronized by treatment with 2 mM thymidine. After 24 hours of synchronization, and 4 hours before the start of the imaging experiment, medium was replaced by medium without thymidine. […] Image Z-stacks were acquired with 3-μm intervals using a sCMOS camera (DeltaVision RT; Applied Precision, GE Healthcare, Issaquah, WA) and processed using ImageJ software (NIH, Bethesda, MD, USA). Chromosome mis-segregation phenotypes co-occurred and many combinations existed. For clarity, all the events were scored and included: more than two phenotypes, mitotic slippage, DNA bridge, micro-nuclei and multipolar spindle.

Data set [12] relates to HCT 116, LoVo, A-172, DoTc2 4510, MG-63, OVCAR-3 cell lines. The data set is described as follows: Time-lapse microscopy, sensitive and resistant cell lines. The format is cell-based, human. To be noted: 100 nM. Here is the method:
The activity of the mitotic checkpoint was measured by the time between the breakdown of the nuclear envelop and the onset of anaphase (Figure 2A). Under the vehicle-treated control conditions, all sensitive cells were able to accomplish a normal mitosis in approximately 35 minutes (HCT 116, 30 min; LoVo, 41 min; A172, 36 min; Figure 2A and Supplementary Figure 1). In contrast, the three resistant cell lines spent more time in mitosis, i.e., almost one hour (MG-63, 53 min), or up to 2 and 3 hours (DoTc2 4510, 122 min; OVCAR-3, 173 min).
as §3

The subject of data set [13] is caspase 3/7 in HCT 116, HPT1, HPT2 and HPT4 cells. Kind of data set: Caspase 3/7 activity assay. The format is cell-based, human. The note with it: 316 nM, three days, parental line and HPT1, HPT2, HPT4. On the procedure:
as §2

For data set [14] the following is noted: toxicity studies in mice; cited from earlier work.
In data set [15] the test system is MG-63 osteosarcoma cell line. The note with it: three day cell proliferation assay; cited from earlier work.
Data set [16] has as its system HCT 116 colon carcinoma cell line. The note with it: three day cell proliferation assay; cited from earlier work.
Setting [17] is: geometric average of three experiments.

pIC50: −log10 of the molar value. “And” between values parts separate entries of the source, which are not always exact repeats. Identical values can stand only once. Like-named read-outs stand apart in the source and are kept apart here.

As usually defined, the pIC50 is the IC50 on a negative log10 scale, so that one unit is a factor of ten. As for `CCc1cccc(CC)c1NC(=O)c1ccn2c1CCc1cnc(Nc3ccc(N4CCN(C)CC4)cc3OC)nc1-2` [NTRC 0066-0], the “Efficacy (%)” value in [1] (average of three experiments) is 48%; in [5] (average of three experiments) it was 36%. In addition, the pIC50 was 7.36 in data set [1] (setting [17]); 6.05 and 6.06 in data set [2]; 7.17 in data set [4] (3 days, geometric average in 44 cell lines); 7.01 in data set [4] (5 days, geometric average in 66 cancer cell lines); 7.36 in [5] (setting [17]); 7.46 in data set [6]. The negative logarithm of the IC50 (pIC50) in data set [8] is 7.40; in data set [9], 6.57; in [10] it was 6.59; in data set [15], 6.87; in data set [16] it was 7.43. In addition, in data set [3], the “proliferation after compound wash-out (colony formation)” value is “unable to fully resume proliferation”. In addition, the “Δeff. (%)” value in data set [7] (HCT 116 vs HPT1, -2 and -4) is reported as −33%. The “Phenotype (efficacy)” value in data set [7] (HCT 116 vs HPT1, -2 and -4, based on % effect) is “resistant”. For the same molecule, the “Phenotype (potency)” value in data set [7] (HCT 116 vs HPT1, -2 and -4, 'resistant' indicates that tetraploids are resistant) is “sensitive”. The ΔpIC50 in data set [7] (average log shift in sensitivity between parental and tetraploids) is recorded as −0.01. Besides, the time-in-mitosis in [11] is 20 min; in [12] (all cell lines, nuclear envelope breakdown to anaphase onset), “approximately 20 min”. For the same molecule, the results for the defective anaphases in [12] (resistant cell lines) and in [12] (sensitive cell lines) were 63–71% and “at least 60%”, respectively. In addition, the “caspase 3/7 activity” value in [13] is reported as “induced caspase 3/7 activity”. Besides, the “effect on bone marrow or blood cell count (hematological toxicity)” value in data set [14] is “no effect on bone marrow or blood cell count”.

Source of the values: publication PMC5503534, “Stable aneuploid tumors cells are more sensitive to TTK inhibition than chromosomally unstable cell lines” (Oncotarget, 2017).
